ChEMBL document CHEMBL4609972, “Histone deacetylase 8 (HDAC8) and its inhibitors with selectivity to other isoforms: An overview” (Eur J Med Chem, 2019)
Square brackets hold non-standard residues; d marks the D form. Peptide text beside a SMILES is read from it. * marks the point of attachment. Asu = N[C@@H](CCCCCC(=O)O)C(=O)O; NHOH = ON*

Legend:
[1] = target: T1, Protein deacetylase HDAC6 (Homo sapiens, UniProt Q9UBN7); assay: Inhibition of HDAC6 (unknown origin)
T1 sequence (Q9UBN7 whole entry): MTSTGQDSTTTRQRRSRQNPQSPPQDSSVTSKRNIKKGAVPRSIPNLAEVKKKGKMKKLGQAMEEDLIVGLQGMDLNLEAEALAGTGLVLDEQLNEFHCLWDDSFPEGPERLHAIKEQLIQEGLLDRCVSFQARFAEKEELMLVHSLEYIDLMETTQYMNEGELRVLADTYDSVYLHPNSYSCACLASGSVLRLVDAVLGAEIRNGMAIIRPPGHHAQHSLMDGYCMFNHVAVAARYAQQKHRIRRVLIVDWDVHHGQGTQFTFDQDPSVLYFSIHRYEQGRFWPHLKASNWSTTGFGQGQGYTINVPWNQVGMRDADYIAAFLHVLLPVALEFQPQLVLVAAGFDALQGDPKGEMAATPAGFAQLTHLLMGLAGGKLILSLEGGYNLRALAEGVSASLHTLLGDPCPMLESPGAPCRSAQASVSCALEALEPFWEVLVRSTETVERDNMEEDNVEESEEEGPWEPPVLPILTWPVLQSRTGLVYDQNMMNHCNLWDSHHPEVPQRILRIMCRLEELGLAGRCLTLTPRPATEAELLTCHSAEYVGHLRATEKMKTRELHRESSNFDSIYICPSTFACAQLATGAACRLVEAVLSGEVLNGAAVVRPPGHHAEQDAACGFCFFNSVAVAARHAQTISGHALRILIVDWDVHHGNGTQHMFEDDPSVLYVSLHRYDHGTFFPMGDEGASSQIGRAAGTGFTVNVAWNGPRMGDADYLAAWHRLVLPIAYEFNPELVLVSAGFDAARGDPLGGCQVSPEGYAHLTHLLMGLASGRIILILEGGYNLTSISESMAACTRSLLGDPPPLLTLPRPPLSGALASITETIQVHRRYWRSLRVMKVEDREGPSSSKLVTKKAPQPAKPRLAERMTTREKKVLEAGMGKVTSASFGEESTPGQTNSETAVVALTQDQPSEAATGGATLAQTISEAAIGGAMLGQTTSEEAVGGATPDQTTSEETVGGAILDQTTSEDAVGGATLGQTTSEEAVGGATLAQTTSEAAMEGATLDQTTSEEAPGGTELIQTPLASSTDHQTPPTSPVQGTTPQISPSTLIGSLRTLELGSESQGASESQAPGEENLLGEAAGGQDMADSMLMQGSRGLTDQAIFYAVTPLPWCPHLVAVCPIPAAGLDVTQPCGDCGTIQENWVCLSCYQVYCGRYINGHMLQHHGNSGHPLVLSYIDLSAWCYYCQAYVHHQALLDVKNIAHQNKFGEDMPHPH

[2] = target: 72 kDa type IV collagenase (Homo sapiens, UniProt P08253); assay: Inhibition of MMP2 (unknown origin)
Chain of 72 kDa type IV collagenase (P08253 whole entry): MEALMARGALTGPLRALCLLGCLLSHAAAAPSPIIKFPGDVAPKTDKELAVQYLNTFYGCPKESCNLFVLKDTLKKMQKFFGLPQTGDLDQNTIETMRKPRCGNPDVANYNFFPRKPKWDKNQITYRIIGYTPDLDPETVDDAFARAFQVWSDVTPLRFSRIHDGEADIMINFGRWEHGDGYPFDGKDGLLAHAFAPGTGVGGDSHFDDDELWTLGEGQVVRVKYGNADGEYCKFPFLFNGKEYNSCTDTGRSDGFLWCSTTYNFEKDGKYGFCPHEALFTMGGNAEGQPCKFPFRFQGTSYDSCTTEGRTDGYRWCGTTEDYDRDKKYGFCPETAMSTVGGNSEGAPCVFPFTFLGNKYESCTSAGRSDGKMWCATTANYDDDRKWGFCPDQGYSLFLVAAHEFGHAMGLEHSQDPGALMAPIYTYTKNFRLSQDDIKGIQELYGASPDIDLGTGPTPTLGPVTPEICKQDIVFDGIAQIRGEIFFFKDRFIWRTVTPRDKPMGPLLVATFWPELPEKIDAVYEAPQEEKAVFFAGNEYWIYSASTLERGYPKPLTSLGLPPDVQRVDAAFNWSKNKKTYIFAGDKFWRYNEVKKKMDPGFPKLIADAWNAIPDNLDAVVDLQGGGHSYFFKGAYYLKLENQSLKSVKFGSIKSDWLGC

Histone deacetylase 8 = target: T2, Histone deacetylase 8 (Homo sapiens, UniProt Q9BY41); assay: Inhibition of HDAC8 (unknown origin)
T2 sequence (Q9BY41 whole entry): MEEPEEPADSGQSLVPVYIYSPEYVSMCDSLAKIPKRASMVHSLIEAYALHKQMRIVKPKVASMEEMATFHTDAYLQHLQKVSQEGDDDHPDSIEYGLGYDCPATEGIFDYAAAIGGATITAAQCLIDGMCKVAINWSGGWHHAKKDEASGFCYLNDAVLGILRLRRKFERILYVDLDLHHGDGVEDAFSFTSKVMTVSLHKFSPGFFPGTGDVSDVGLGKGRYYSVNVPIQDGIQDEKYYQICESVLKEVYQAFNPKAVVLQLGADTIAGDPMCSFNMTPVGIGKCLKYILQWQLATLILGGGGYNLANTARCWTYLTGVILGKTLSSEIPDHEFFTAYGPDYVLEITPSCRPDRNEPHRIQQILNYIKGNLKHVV

Histone deacetylase = assay: Inhibition of HDAC (unknown origin); format: protein assay, Homo sapiens

| IC50 [1] | IC50 (Histone deacetylase 8) | Structure (SMILES) | also measured |
| --- | --- | --- | --- |
| 376 nM | – | O=C(NO)c1ccc(CN(CCO)C(=O)Cc2ccccc2)cc1 | – |
| – | 2890 nM | O=C(O)CC[C@@H](NC(=O)Cc1ccc(Br)cc1)C(=O)NCc1ccc([N+](=O)[O-])cc1 | IC50 [2]: 2890 nM |
| – | 967 nM | O=C(CCCCCNC(=O)c1ccc(NC(=O)NC(C(=O)Nc2cccc(C(F)(F)F)c2)c2ccccc2)cc1)NO (centres undefined) | – |
| – | 119 nM | O=C(CCCCCCC(=O)Nc1cc(C(F)(F)F)ccc1Cl)NO | – |
| – | 53 nM | O=C(NO)c1cccc(-c2nc(CSc3ccccc3)n[nH]2)c1 | – |
| 1400 nM | – | O=C(NO)c1ccc(NCc2csc3ccccc23)cc1 | – |
| 417 nM | – | CC(C)[C@@H](C#Cc1ccc(C(=O)NO)cc1)NC(=O)C1Cc2ccccc2O1 (some centres undefined) | – |
| – | – | CC[C@H](C)[C@@H]1NC(=O)[C@@H](Cc2ccc(OC)cc2)NC(=O)[C@H](CCCCCC(=O)NO)NC(=O)[C@H]2CCCN2C1=O (cyclo([Asu](NHOH)[dY](Me)I[dP])) | IC50 (Histone deacetylase): 3.32 nM |
